Assay [1] has as its target T1, MRSA PK (Staphylococcus aureus, UniProt Q6GG09).
T1 construct: His tag (pET-28a(+) vector) (N); made in house; host or cells: E. coli BL-21 (DE3)
Briefly: MRSA PK activity, continuous LDH-coupled assay. Format: biochemical, S. aureus (MRSA strain Sanger 252). The conditions noted are these: for inhibition at 10 µM: read-out: % inhibition at the highest concentration tested (IC50). The source says:
Genomic DNA of MRSA strain Sanger 252 extracted using DNeasy Tissue Kit™ (Qiagen™) was used as a template to generate the His-tagged MRSA PK. Human cDNA from MCF-7 breast cancer cell line (courtesy of Dr. J Wong, BC Cancer Research Center (Vancouver, Canada) was used as a template to generate the full-length human M2 PK enzyme. The following primer sets were used creating appropriate restriction sites (NdeI and XhoI sites underlined): For cloning of MRSA PK: M27F 5′-[…]-3′ and M27R 5′-[…]-3′, for cloning of human M2 PK isoform: hM2F 5′-[…]-3′ and hM2R 5′-[…]-3′. The resulting PCR fragments for each construct were cloned into the NdeI and XhoI unique sites of the bacterial expression vector pET-28a (+) (Novagen™). […] The sequence and the correct reading frame of all constructs were verified by sequencing. Human M1, R and L PK constructs in pET-28-a(+) vectors (courtesy of Dr. L. Cantley, Harvard Medical, School (Boston, USA)) were used to generate relevant recombinant His-tagged human PK isoforms.
MRSA and human constructs in pET-28a(+) were used to express relevant recombinant PK proteins in E. coli BL-21 (DE3). The proteins were expressed and purified using Ni-NTA agarose (Qiagen™) according to the manufacturer's protocol. Briefly, cells were grown to an absorbance of 0.4-0.5 at 600 nm in 2×YT medium, then induced with 0.1 mM IPTG for 3 h at 20° C. Cells were lysed by sonication on ice (3×10-s bursts with a 30-s recovery between bursts) in lysis buffer (0.2 mg/ml lysozyme, 50 mM Tris pH 7.5, 10 mM MgCl2, 200 mM NaCl, 100 mM KCl, 10% glycerol, 10 mM imidazole, 0.5% NP-40 and 1 mM DTT containing Complete™ protease inhibitor). Cell lysates were cleared by centrifugation (18,000×g in a Beckman™ JA-20 rotor) for 20 min at 4° C. and PK isoforms were purified by batch binding to Ni-NTA resin. The resins were then packed in columns (1×2 cm) and washed with 400 column volumes lysis buffer containing 30 mM imidazole. His-tagged PK isoforms were eluted with the same buffer containing 300 mM imidazole. The proteins were dialyzed overnight at 4° C. against 2000 volumes of ice-cold 30 mM Tris pH 7.5, 25 mM KCl, 5 mM MgCl2, 10% glycerol and 1 mM DTT to remove imidazole. All purification steps were done at 4° C.; enzymes were flash-frozen and stored at −70° C. […] Purity and physical integrity of proteins were assessed using SDS-polyacrylamide gel electrophoresis (SDS-PAGE) followed by coomassie blue staining. Protein concentration was estimated by Bradford assay (Bio-Rad Protein Assay™) using bovine serum albumin as a standard.
Candidate MRSA PK inhibitors were assayed for their ability to inhibit enzymatic activities of MRSA and human PKs. PK activity was determined using a continuous assay coupled to lactate dehydrogenase (LDH) in which the change in absorbance at 340 nm owing to oxidation of NADH was measured using a Benchmark Plus™ microplate spectrophotometer (Bio-Rad Laboratories, Hercules, Calif.). […] Reactions were initiated by the addition of 15 nM of one of the PK enzymes. PK activity proportional to the rate of change at 340 nm was expressed as specific activity (μmol/min/mg), which is defined as the amount of PK that catalyzes the formation of one micromole of either product per minute. Inhibitors were dissolved in DMSO with the final concentration of the solvent never exceeding 1% of the assay volume. IC50 values were calculated by curve fitting on a four-parameter dose-response model with variable slope using Graphpad Prism 5.0™ (GraphPad™ Software Inc., La Jolla, Calif.). […] Reactions were performed at 30° C. for up to 5 min. All values determined represent at least two measurements, in triplicate (Tables 1-6) or duplicate unless mentioned otherwise.

Assay [2] relates to S. aureus ATCC 29213. The assay can be described thus: In vitro susceptibility, broth microdilution MIC. Format: cell-based, Staphylococcus aureus. The following applies: Staphylococcus aureus, read-out: MIC. As to the method:
The antimicrobial activities of PK inhibitor candidates were determined using the 96-well microtiter standard 2-fold serial broth microdilution method as described by CLSI (formerly NCCLS) with the various gram-positive and gram-negative bacteria species mentioned above. Bacteria from a single colony were grown, overnight in either BHI Broth (VRE), mueller hinton broth (S. aureus 29213; MRSA USA400) or L-broth (E. coli, P. aeruginosa, S. typhimuriu, K. Pneumonia and A. baumannii). […] Culture plates were incubated for 18-24 h at 37° C., and optical density at 600 nm (OD600) was measured using a Benchmark Plus™ microplate spectrophotometer (Bio-Rad™). The absorbance control values for the series containing CAMHB and inhibitor were subtracted as background from the corresponding infected wells. The MIC was defined as the lowest concentration of test compound leading to complete inhibition of cell growth in relationship to compound-free control wells as determined by optical density. […] All assays were run in triplicate (Tables 1-6) or duplicate. Experiments were replicated at least twice to verify reproducibility using the above conditions.
(In general: Dilution methods test growth across graded concentrations, often in twofold steps.)

Where [3] appears, read: ATCC29213, Table 8, tested at least in duplicate, differing values all given.
Where [4] appears, read: Tables 1-6, 2 mM ADP, 10 mM PEP, 15 nM PK, read-out: IC50.
Where [5] appears, read: ATCC29213, Tables 1-6 and text, minimum concentration to give >98% inhibition of growth.

SMILES strings stand for the structures. pEC50, pIC50: −log10 of the molar value. Values after ≈ are worked out from the molar mass of the structure shown. Read-outs that look alike come from different tables or passages of the source. Some results are limits rather than exact numbers.

T1 sequence (Q6GG09 whole entry): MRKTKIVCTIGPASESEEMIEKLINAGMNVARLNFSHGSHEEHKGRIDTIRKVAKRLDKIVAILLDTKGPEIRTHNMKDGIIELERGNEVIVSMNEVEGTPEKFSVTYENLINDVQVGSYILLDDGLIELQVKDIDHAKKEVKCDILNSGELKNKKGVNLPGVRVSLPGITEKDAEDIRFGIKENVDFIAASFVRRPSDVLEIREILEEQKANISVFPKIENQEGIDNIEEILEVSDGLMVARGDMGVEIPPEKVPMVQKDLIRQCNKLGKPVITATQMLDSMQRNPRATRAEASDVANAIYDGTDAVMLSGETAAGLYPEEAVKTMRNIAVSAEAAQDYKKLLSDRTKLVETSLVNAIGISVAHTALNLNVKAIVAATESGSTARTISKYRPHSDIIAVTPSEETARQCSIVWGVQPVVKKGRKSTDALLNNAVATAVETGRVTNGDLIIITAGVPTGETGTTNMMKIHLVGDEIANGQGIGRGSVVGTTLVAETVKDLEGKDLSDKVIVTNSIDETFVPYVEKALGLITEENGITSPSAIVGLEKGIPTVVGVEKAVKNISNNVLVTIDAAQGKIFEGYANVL

The pIC50 is the IC50 on a negative log10 scale, so that one unit is a factor of ten. Broadly, the MIC is the least concentration at which growth counts as inhibited. Compound `COC(=O)c1c(C(=O)Nc2ccc(OC)cc2)[nH]c2cc(Br)ccc12` [Compound 133, Methyl 6-bromo-2-((4-methoxyphenyl)carbamoyl)-1H-indole-3-carboxylate] showed a pIC50 in assay [1] above 7.30. Moreover, in assay [2] (setting [3]), the MIC was above 64 µg/mL.

A word on the pEC50: it is the negative decadic logarithm of the EC50, by convention in mol/L. A higher pEC50 goes with a low EC50. For the compound `COC(=O)c1c(C(=O)Nc2ccc(Br)cc2)[nH]c2cc(Br)ccc12` [Compound 131, Methyl 6-bromo-2-((4-bromophenyl)carbamoyl)-1H-indole-3-carboxylate], in assay [1], the pEC50 is 7.82. In addition, the MIC in assay [2] (setting [3]) was above 64 µg/mL.

Consider `Brc1ccc2cc(/C=C/c3cc4ccc(Br)cc4[nH]3)[nH]c2c1` [Compound 27b, (E)-1,2-bis(6-bromo-1H-indol-2-yl)ethane], for which, in assay [1] (setting [4]), the pIC50 is 8.41. In assay [2] (setting [5]), the minimal inhibitory concentration (MIC) was above 64 µg/mL.

Take `O=C1c2ccc(Br)cc2C(=O)N1c1nc2ccc(Br)cc2s1` [Compound 65, 5-bromo-2-(6-bromobenzo[d]thiazol-2-yl)isoindoline-1,3-dione]: the inhibition at 10 µM in assay [1] turned out to be 76%. Also, the minimal inhibitory concentration (MIC) in assay [2] (setting [5]) was above 64 µg/mL.

In turn, `O=C(O)c1c(-c2cc3cc(Cl)ccc3[nH]2)[nH]c2cc(Br)ccc12` [Compound 162, 6-bromo-5′-chloro-1H,1′H-[2,2′-biindole]-3-carboxylic acid] gave a pIC50 in assay [1] above 7.30. Further, in assay [2] (setting [3]), the MIC came to 4 µg/mL (≈ 10.3 µM).

In assay [1], `Cc1ccc(/C=C/c2cc3ccc(Br)cc3[nH]2)cn1` [Compound 106, (E)-6-Bromo-2-(2-(6-methylpyridin-3-yl)vinyl)-1H-indole] gave a pIC50 below 6.00. The MIC in assay [2] (setting [3]) was above 64 µg/mL.

With `O=C(Nc1nc2ccccc2s1)c1cc(Br)ccc1O` [Compound 56], the inhibition at 10 µM in assay [1] came to 76%. Also, the MIC in assay [2] (setting [5]) is above 64 µg/mL.

With `Brc1ccc2[nH]c(-c3ccc(-c4cc5ccc(Br)cc5[nH]4)s3)cc2c1` [Compound 47, 6-Bromo-2-(5-(5-bromo-1H-indol-2-yl)thiophen-2-yl)-1H-indole], the inhibition at 10 µM in assay [1] came out at 52%. Besides, the MIC in assay [2] (setting [5]) was above 64 µg/mL.

Regarding `O=C(Nc1nc2ccc(Br)cc2s1)c1ccccc1O` [Compound 66], the inhibition at 10 µM in assay [1] is 59%. Moreover, in assay [2] (setting [5]), the MIC was above 64 µg/mL.

Turning to `COC(=O)c1cc(Br)cc2[nH]c(/C=C/c3ccc(Cl)cc3)cc12` [Compound 157, (E)-Methyl 6-bromo-2-(4-chlorostyryl)-1H-indole-4-carboxylate], in assay [1], the pIC50 is below 6.00. Further, in assay [2] (setting [3]), the MIC was above 64 µg/mL.

Consider `Clc1ccc(C#Cc2cc3ccc(Br)cc3[nH]2)nc1` [Compound 141, 6-bromo-2-((5-chloropyridin-2-yl)ethynyl)-1H-indole], for which, in assay [1], the pIC50 was 6.00 to 7.00. Moreover, the MIC in assay [2] (setting [3]) is above 64 µg/mL.

Consider `CC(=O)c1c(-c2cc3ccccc3[nH]2)[nH]c2cc(Br)ccc12` [Compound 91, 1-(6-bromo-1H,1′H-[2,2′-biindol]-3-yl)ethan-1-one], for which the pIC50 in assay [1] is 8.11. Also, the MIC in assay [2] (setting [5]) stood at 4 µg/mL (≈ 11.3 µM).

For the compound `FC(F)(F)c1ccc(/C=C/c2cc3ccc(Br)cc3[nH]2)cc1` [Compound 102, (E)-6-Bromo-2-(4-(trifluoromethyl)styryl)-1H-indole], in assay [1], the pIC50 was 6.00 to 7.00. Moreover, the MIC in assay [2] (setting [3]) is 64 µg/mL (≈ 175 µM).

Turning to `Brc1ccc2[nH]c(/C=C/c3cc4ccc(Br)cc4[nH]3)cc2c1` [Compound 27c, (E)-6-bromo-2-(2-(5-bromo-1H-indol-2-yl)vinyl)-1H-indole], in assay [1] (setting [4]), the pIC50 is 8.39. The MIC in assay [2] (setting [5]) is above 64 µg/mL.

Compound `Brc1ccc2cc(CSCc3ccccc3)[nH]c2c1` [Compound 149, 2-((Benzylthio)methyl)-6-bromo-1H-indole] gave a pIC50 in assay [1] below 6.00. Moreover, the MIC in assay [2] (setting [3]) is above 64 µg/mL.

`COc1ccc(/C=C/c2cc3ccc(Br)cc3[nH]2)nc1` [Compound 107, (E)-6-Bromo-2-(2-(5-methoxypyridin-2-yl)vinyl)-1H-indole] had a pIC50 in assay [1] of 7.00 to 7.30. In addition, in assay [2] (setting [3]), the MIC was above 64 µg/mL.

In assay [1], `Cc1c(/C=C/c2ccc(Cl)cc2)[nH]c2cc(Br)ccc12` [Compound 160, (E)-6-bromo-2-(4-chlorostyryl)-3-methyl-1H-indole] gave a pIC50 above 7.30. Besides, the MIC in assay [2] (setting [3]) is above 64 µg/mL.
